According to ChEMBL document CHEMBL1201862, “PubChem BioAssay data set” (2004):
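Where inhibition never reached the appropriate level, the endpoint shown equals the highest concentration tested. Otherwise, values were interpolated linearly from a five-concentration, 48-hour dose response in 96-well plates. The concentration for 50% growth inhibition is given as GI50.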 Activity calls are given as the source filed them. Cut-off read from the data, not from the text of the source: active = GI50 up to about 1.1 µM and inactive = higher.

What was measured:
Assay in all cases: NCI tumour cell line growth inhibition, 48 h
[1] = tested on: COLO 205
[2] = tested on: EKVX
[3] = tested on: HCT-116
[4] = tested on: HL-60
[5] = tested on: HOP-62
[6] = tested on: M14
[7] = tested on: Malme-3M
[8] = tested on: NCI-H522
[9] = tested on: RPMI-8226
[10] = tested on: SK-MEL-28
[11] = tested on: SK-MEL-5
[12] = tested on: SK-OV-3
[13] = tested on: SW-620
[14] = tested on: TK-10
[15] = tested on: UO-31
[16] = tested on: CAKI-1
[17] = tested on: HCC 2998
[18] = tested on: LOX IMVI
[19] = tested on: NCI-H226
[20] = tested on: OVCAR-5

Measured: GI50

O=C(NN1C(=O)C(Cl)C1c1ccccc1O)c1ccccc1O (stereo not drawn)
inactive: [1] 21.4 µM | [2] 29.4 µM | [3] 3.69 µM | [4] 6.11 µM | [5] 29 µM | [6] 18.3 µM | [7] 13.9 µM | [8] 29 µM | [9] 12.5 µM | [10] 22.3 µM | [11] 29.4 µM | [12] 16.1 µM | [13] 32.7 µM | [14] 47.5 µM | [15] 21.3 µM

CCc1c(O)c2c(c(O)c1C(C)=O)C(=O)c1c(cc(O)c(C(=O)O)c1C(=O)O)C2=O
inactive: [16] > 100 µM | [1] > 100 µM | [2] > 100 µM | [17] > 100 µM | [3] > 100 µM | [5] > 100 µM | [18] > 100 µM | [6] > 100 µM | [7] > 100 µM | [19] > 100 µM | [8] > 100 µM | [20] > 100 µM | [9] > 100 µM | [10] > 100 µM | [11] > 100 µM | [12] > 100 µM | [13] > 100 µM | [14] > 100 µM | [15] > 100 µM

Cc1cnc(Cl)nc1C(C#N)c1nc2ccccc2s1 (stereo not drawn)
inactive: [16] 22.4 µM | [1] 14.2 µM | [2] 32.8 µM | [3] 10.5 µM | [5] 22.2 µM | [18] 18.8 µM | [6] 28 µM | [7] 9.31 µM | [19] 14.7 µM | [8] 2.84 µM | [20] 25.8 µM | [9] 12.6 µM | [10] 69 µM | [11] 5.57 µM | [12] 18 µM | [13] 33.6 µM | [14] 24.8 µM | [15] 31.7 µM

CC(Cc1ccccc1)Nc1ncnc2c1ncn2C1OC(CO)CC1O (stereo not drawn)
inactive: [16] > 100 µM | [1] > 100 µM | [2] > 100 µM | [17] > 100 µM | [3] > 100 µM | [5] > 100 µM | [18] > 100 µM | [6] > 100 µM | [7] > 100 µM | [19] > 100 µM | [8] > 100 µM | [20] > 100 µM | [9] > 100 µM | [10] > 100 µM | [11] > 100 µM | [12] 3.71 µM | [13] > 100 µM | [14] > 100 µM | [15] > 100 µM

O=C(c1ccccc1)c1nc2ccc(Cl)cc2c2c1CCCO2
inactive: [16] > 100 µM | [1] > 100 µM | [2] > 100 µM | [17] > 100 µM | [3] > 100 µM | [5] > 100 µM | [18] > 100 µM | [6] > 100 µM | [7] > 100 µM | [19] > 100 µM | [8] > 100 µM | [20] > 100 µM | [9] > 100 µM | [10] 33.7 µM | [13] > 100 µM | [14] > 100 µM | [15] > 100 µM

CCOC(=O)Oc1cc2ccsc2c2c1c1ccccc1n2C(=O)OCC
inactive: [16] 58.2 µM | [1] > 100 µM | [2] 60.7 µM | [3] 54.6 µM | [5] 37.3 µM | [18] > 100 µM | [6] 31.3 µM | [7] 33.7 µM | [19] 42.2 µM | [8] 32.1 µM | [20] > 100 µM | [9] 82 µM | [10] > 100 µM | [11] 63.7 µM | [12] 29 µM | [13] 94.8 µM | [14] 50 µM | [15] 24.2 µM

COc1ccc(-c2cc(O)c3ccc(C)nc3n2)cc1
inactive: [16] > 100 µM | [1] > 100 µM | [2] > 100 µM | [17] > 100 µM | [5] > 100 µM | [18] > 100 µM | [6] > 100 µM | [7] > 100 µM | [19] > 100 µM | [8] > 100 µM | [20] > 100 µM | [9] 55.7 µM | [10] > 100 µM | [12] > 100 µM | [13] > 100 µM | [14] > 100 µM | [15] > 100 µM

Nc1nc(O)c2ncn(C3C=CC(CO)O3)c2n1 (stereo not drawn)
inactive: [16] > 100 µM | [1] > 100 µM | [3] > 100 µM | [5] > 100 µM | [18] > 100 µM | [6] > 100 µM | [7] > 100 µM | [19] > 100 µM | [20] > 100 µM | [9] > 100 µM | [10] > 100 µM | [11] > 100 µM | [13] > 100 µM | [14] > 100 µM | [15] > 100 µM
